Assay [1] deals with PDGFR. The assay is described as follows: Receptor tyrosine kinase inhibition, PDGFR. In kind it is cell-based. Here is the method: (§1) For western blotting, cells were plated in 2 mL growth medium into 6-well dishes (500,000 cells per well) and allowed to attach overnight. […] The plates were then incubated overnight at 37° C., ambient CO2. […] After a 7 min incubation at room temperature with ligand, the plates were put on ice and washed three times with 1 mL ice-cold PBS plus 1 mM orthovanadate. Lysis was achieved by pipetting cells in 0.5 mL of buffer containing 50 mM Tris, pH 7.4, 10% glycerol, 1% NP-40, 2 mM EDTA, 1 mM sodium vanadate (Na3 VO4), 10 mM pyrophosphate, 1 mM PMSF, […]. A 300 μL aliquot of each lysate was immediately added to 100 μL 4×Laemmli sample buffer ([…] Tris pH 6.9, 20% glycerol, 7% SDS, 5 mM EDTA, 5% β-mercaptoethanol) containing phosphatase inhibitors, 2 mM Na3 VO4 and 10 mM pyrophosphate. Samples were boiled for 5 min, frozen in dry ice-ethanol, and stored at -80° C. […] The integrity of the protein-to-membrane transfer was determined by staining with 1% Ponceau S in 5% acetic acid for 5 min. After destaining in several distilled water rinses, the membrane was soaked overnight in blocking buffer containing 5% milk in Tris-buffered saline, 0.05% Tween 20. Phosphotyresine was detected by incubating the membrane (1 hr at room temperature) with an anti-phosphotyosine antiserum diluted in blocking buffer at 1:3000. […] The antibodies were visualized using ECL reagent from Amersham and by exposure to Fuji RX film.
(§2) For ELISA assays, cells were grown to 80-90% confluency in growth medium and seeded in 96-well tissue culture plates in 0.5% serum at 25,000 to 30,000 cells per well. After overnight incubation in 0.5% serum-containingmedium, cells were changed to serum-free medium and treated with test compound for 2 hr in a 5% CO2, 37° C. incubator. […] Lysates were incubated with shaking for 1 hr at room temperature. The plates were washed with TBST four times and then incubated with polyclonol anti-phosphotyrosine antibody at room temperature for 30 min. Excess anti-phosphotyrosine antibody was removed by rinsing the plate with TBST four times. Goat anti-rabbit IgG antibody was added to the ELISA plate for 30 min at room temperature followed by rinsing with TBST four more times.
(§3) The ability of different compound to inhibit different receptor tyrosine kinases was tested.

For assay [2], the system named is C6 cells. In words: C6 SRB growth assay. The note with it: Rattus norvegicus, C6; read-out: C6 SRB IC50. In kind it is cell-based, rat.
The target of assay [3] is T1, PDGF-R (U1242) (Homo sapiens, UniProt P09619).
T1 construct: U1242 (PDGF-β receptor); host or cells: U1242 MG glioma cells
In words: U1242 kinase (PDGF-R activity). In kind it is cell-based. As to the method: as §1, §2
PDGF-R activity, C6 SRB, and in vivo efficacy were measured using the procedures described in the appendices above.

Assay [4] deals with T2, PDGFR (Homo sapiens, UniProt P09619). The assay is described as follows: PDGF-stimulated receptor phosphorylation in U1242 cells, ELISA. In kind it is cell-based. Also noted: U1242 (PDGF-β receptor); host or cells: U1242 MG glioma cells. The settings on record: 100 ng/ml PDGF-BB; read-out: ELISA P-TYR U1242 IC50. As to the method: as §2, with “incubator. Cells were then stimulated with ligand for 5-10 min followed by lysis with HNTG (20 mM Hepes, 150 mM NaCl, 10% glycerol, 5 mM EDTA, 5 mM Na3 VO4 0.2% Triton X-100, and 2 mM NaPyr).” for “incubator.”
U1242 MG cells were plated in 96-well plates at a concentration of 5×10^4 cells/well in cultured media containing 0.5% FBS. The cells were incubated for 24 hours. The cells were then treated with a particular compound for 2 hours followed by the addition of 100 ng/ml PDGF-BB and incubation for 10 minutes.
Cells were lysed in 0.2 M Hepes, 0.15 M NaCl, 10% V/V glycerol, 0.04% Triton X-100, 5 mM EDTA, 5 MM Na^+ vanadate and […] Na^+ pyrophosphate. Cell lysates were then added to an ELISA plate coated with an anti-PDGF receptor antibody (Genzyme). ELISA plates were coated at […] of antibody/well in […] of PBS for 18 hours at 4° C. prior to the addition of the lysate.
The lysate was incubated in the coated plates for 1 hour and then washed four times in TBST (35 mM Tris-HCl pH 7.0, 0.15 M NaCl, 0.1% Triton X-100). Anti-phosphotyrosine antibody ([…] in PBS) was added and the mixture was incubated for 30 minutes at room temperature. The wells were then washed four times in TBST, a secondary antibody conjugated to POD (TAGO) was added to each well, and the treated wells were incubated for 30 minutes at room temperature. The wells were then washed four times in TBST, ABTS/H2 O2 solution was added to each well and the wells were incubated for two minutes. Absorbance was then measured at 410 nm.
(In general: In an ELISA, binding on a coated surface is turned into a signal by an enzyme label.)

Assay [5] addresses T3, EGFR (Homo sapiens, UniProt P00533).
T3 construct: expressed in transfected cells; host or cells: NIH3T3 mouse fibroblasts, retroviral vector
The assay is described as follows: Receptor tyrosine kinase inhibition, EGFR. In kind it is cell-based. The settings on record: for IC50: read-out: EGFR ID50. As to the method: (§4) For western blotting, cells were plated in 2 mL growth medium into 6-well dishes (500,000 cells per well) and allowed to attach overnight. The medium was replaced with 2 mL MCDB 105 (UCSF Cell Culture Facility) supplemented with 1% FBS. The plates were then incubated overnight at 37° C., ambient CO2. […] After a 7 min incubation at room temperature with ligand, the plates were put on ice and washed three times with 1 mL ice-cold PBS plus 1 mM orthovanadate. Lysis was achieved by pipetting cells in 0.5 mL of buffer containing 50 mM Tris, pH 7.4, 10% glycerol, 1% NP-40, 2 mM EDTA, 1 mM sodium vanadate (Na3 VO4), 10 mM pyrophosphate, 1 mM PMSF, […]. A 300 μL aliquot of each lysate was immediately added to 100 μL 4×Laemmli sample buffer ([…] Tris pH 6.9, 20% glycerol, 7% SDS, 5 mM EDTA, 5% β-mercaptoethanol) containing phosphatase inhibitors, 2 mM Na3 VO4 and 10 mM pyrophosphate. Samples were boiled for 5 min, frozen in dry ice-ethanol, and stored at -80° C. Proteins were resolved by SDS-PAGE (Bio-Rad Miniprotean II) and transferred to nitrocellulose membrane (Schleicher & Schuell) at 120 volts for 1 hr at room temperature in buffer containing 25 mM Tris pH 8.3, 20% methanol, 0.2 M glycine, 0.1% SDS. The integrity of the protein-to-membrane transfer was determined by staining with 1% Ponceau S in 5% acetic acid for 5 min. After destaining in several distilled water rinses, the membrane was soaked overnight in blocking buffer containing 5% milk in Tris-buffered saline, 0.05% Tween 20. Phosphotyresine was detected by incubating the membrane (1 hr at room temperature) with an anti-phosphotyosine antiserum diluted in blocking buffer at 1:3000. For C6 cells, PDGF-β receptor content in the lysates was confirmed in duplicate sample lanes by western blotting using an antibody specific for PDGF-β receptor (UBI). The antibodies were visualized using ECL reagent from Amersham and by exposure to Fuji RX film.
(§5) For ELISA assays, cells were grown to 80-90% confluency in growth medium and seeded in 96-well tissue culture plates in 0.5% serum at 25,000 to 30,000 cells per well. After overnight incubation in 0.5% serum-containingmedium, cells were changed to serum-free medium and treated with test compound for 2 hr in a 5% CO2, 37° C. incubator. Cells were then stimulated with ligand for 5-10 min followed by lysis with HNTG (20 mM Hepes, 150 mM NaCl, 10% glycerol, 5 mM EDTA, 5 mM Na3 VO4 0.2% Triton X-100, and 2 mM NaPyr). Cell lysates (0.5 mg/well in PBS) were transferred to ELISA plates previously coated with receptor-specific antibody and which had been blocked with 5% milk in TBST (50 mM Tris-HCl pH 7.2, 150 mM NaCl and 0.1% Triton X-100) at room temperature for 30 min. Lysates were incubated with shaking for 1 hr at room temperature. The plates were washed with TBST four times and then incubated with polyclonol anti-phosphotyrosine antibody at room temperature for 30 min. Excess anti-phosphotyrosine antibody was removed by rinsing the plate with TBST four times. Goat anti-rabbit IgG antibody was added to the ELISA plate for 30 min at room temperature followed by rinsing with TBST four more times.
as §3

The test system of assay [6] is HER2. The assay is described as follows: Receptor tyrosine kinase inhibition, HER2. In kind it is cell-based. The settings on record: for IC50: read-out: HER2 IC50. Here is the method: as §4, §5, §3
Assay [7] has as its target T4, FLK-1 (Mus musculus, UniProt P35918).
T4 construct: expressed in transfected cells; host or cells: NIH3T3 mouse fibroblasts, retroviral vector
The assay is described as follows: Receptor tyrosine kinase inhibition, FLK-1. In kind it is cell-based. The settings on record: read-out: FLK-1 IC50. Here is the method:
as §4, §5, §3

Assay [8] deals with T2, PDGFR. In words: Receptor tyrosine kinase inhibition, PDGFR. In kind it is cell-based. Details: U1242 (PDGF-β receptor); host or cells: U1242 glioma cells (ELISA). The note with it: read-out: PDGFR IC50. Here is the method:
as §1, §2, §3

The mark [9] stands for this setting: W = done in Western assay; read-out: PDGFR IC50 (W).
The mark [10] stands for this setting: W = done in Western assay, read-out: U1242 KINASE IC50 (W).

“And” between values parts separate entries of the source, which are not always exact repeats. Equal values may be shown once. Read-outs that look alike come from different tables or passages of the source.

T3 sequence (P00533 25-1210): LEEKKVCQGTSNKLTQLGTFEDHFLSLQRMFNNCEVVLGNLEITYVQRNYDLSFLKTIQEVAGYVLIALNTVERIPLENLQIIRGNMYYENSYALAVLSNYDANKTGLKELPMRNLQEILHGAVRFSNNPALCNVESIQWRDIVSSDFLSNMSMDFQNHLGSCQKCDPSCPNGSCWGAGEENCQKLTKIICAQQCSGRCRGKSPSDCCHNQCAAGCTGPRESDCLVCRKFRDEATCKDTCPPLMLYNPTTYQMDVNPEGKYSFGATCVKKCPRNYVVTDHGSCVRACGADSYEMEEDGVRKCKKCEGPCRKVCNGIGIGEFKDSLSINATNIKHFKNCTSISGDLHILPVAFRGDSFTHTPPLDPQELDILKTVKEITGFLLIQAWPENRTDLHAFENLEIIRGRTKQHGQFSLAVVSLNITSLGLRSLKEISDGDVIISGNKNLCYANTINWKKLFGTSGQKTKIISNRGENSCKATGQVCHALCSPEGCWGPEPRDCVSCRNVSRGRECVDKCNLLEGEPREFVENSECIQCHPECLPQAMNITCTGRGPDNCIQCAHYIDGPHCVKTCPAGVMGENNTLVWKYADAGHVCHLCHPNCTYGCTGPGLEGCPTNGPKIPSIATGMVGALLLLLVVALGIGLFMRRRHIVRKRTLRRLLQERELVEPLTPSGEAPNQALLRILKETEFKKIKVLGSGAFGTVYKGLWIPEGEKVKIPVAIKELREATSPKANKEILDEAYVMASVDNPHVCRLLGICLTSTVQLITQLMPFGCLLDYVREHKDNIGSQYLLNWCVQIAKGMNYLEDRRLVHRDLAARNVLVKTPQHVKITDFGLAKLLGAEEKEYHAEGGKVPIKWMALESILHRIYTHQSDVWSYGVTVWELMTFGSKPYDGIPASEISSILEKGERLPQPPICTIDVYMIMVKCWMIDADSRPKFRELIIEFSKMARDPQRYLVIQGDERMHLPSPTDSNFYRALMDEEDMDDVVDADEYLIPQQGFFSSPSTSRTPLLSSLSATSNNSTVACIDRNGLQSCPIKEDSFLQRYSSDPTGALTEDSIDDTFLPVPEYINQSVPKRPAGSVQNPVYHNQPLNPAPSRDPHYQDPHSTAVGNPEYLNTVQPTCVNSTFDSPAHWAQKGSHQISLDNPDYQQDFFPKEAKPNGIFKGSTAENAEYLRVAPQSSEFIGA
T4 sequence (P35918 20-1345): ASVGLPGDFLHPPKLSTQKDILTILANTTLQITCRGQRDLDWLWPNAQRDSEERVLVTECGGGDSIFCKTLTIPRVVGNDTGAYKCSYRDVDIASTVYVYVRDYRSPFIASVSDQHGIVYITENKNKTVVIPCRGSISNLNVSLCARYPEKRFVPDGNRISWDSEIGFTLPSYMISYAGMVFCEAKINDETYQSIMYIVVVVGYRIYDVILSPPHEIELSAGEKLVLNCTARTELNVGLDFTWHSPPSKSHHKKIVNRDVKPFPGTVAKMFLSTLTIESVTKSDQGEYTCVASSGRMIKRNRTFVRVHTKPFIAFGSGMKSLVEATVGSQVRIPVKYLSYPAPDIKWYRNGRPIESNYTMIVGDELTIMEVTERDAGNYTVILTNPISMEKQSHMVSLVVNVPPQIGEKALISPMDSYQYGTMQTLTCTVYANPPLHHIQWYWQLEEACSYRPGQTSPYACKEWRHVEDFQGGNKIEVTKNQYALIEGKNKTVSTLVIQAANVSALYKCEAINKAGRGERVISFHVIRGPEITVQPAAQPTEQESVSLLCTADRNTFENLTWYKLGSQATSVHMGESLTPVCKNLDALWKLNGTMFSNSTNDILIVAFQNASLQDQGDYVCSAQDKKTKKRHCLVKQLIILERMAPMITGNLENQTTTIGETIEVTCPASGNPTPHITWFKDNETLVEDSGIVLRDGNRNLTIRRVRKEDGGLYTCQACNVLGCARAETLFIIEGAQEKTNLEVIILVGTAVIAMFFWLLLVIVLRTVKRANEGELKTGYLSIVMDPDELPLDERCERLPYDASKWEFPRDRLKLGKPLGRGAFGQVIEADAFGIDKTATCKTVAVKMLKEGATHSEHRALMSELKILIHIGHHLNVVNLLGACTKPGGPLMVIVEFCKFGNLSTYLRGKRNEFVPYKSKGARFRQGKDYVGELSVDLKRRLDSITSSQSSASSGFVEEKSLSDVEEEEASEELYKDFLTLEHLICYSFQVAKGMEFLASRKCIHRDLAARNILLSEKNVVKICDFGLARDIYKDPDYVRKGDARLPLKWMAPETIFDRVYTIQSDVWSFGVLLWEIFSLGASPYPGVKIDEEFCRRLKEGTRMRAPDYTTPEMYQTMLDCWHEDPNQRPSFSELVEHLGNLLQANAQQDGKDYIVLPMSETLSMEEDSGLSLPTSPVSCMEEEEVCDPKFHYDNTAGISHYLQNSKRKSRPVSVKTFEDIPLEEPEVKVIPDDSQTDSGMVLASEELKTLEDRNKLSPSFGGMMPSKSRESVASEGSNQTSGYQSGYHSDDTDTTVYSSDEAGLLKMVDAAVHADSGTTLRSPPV
T2 sequence (P09619 33-1106): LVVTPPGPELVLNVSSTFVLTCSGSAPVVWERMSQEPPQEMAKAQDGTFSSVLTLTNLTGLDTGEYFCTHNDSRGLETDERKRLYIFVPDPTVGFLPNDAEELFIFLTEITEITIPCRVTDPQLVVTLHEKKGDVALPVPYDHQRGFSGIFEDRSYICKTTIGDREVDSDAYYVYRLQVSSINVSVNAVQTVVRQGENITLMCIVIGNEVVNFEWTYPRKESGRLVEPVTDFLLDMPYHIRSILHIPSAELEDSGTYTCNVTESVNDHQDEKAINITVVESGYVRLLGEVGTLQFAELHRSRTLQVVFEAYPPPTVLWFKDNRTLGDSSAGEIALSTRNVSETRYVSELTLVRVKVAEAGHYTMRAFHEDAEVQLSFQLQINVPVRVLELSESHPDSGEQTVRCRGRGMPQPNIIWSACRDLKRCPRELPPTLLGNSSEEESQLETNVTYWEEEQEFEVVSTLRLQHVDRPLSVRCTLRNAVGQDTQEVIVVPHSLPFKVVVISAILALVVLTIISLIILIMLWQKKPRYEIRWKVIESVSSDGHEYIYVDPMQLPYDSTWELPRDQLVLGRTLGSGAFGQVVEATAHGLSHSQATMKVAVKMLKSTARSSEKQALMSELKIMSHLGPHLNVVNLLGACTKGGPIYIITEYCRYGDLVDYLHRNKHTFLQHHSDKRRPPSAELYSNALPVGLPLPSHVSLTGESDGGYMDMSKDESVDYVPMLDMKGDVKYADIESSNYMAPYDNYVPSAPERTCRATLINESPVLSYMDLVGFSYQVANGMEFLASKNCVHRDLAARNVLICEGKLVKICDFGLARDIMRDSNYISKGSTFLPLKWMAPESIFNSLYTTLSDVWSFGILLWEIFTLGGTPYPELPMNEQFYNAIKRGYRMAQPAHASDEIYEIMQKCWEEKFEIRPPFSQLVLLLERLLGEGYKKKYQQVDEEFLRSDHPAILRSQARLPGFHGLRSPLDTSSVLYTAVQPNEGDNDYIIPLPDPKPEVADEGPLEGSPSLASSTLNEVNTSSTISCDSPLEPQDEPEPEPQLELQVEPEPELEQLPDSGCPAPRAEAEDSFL
T1 sequence (P09619 33-1106): as above

On to `CC1c2nc3ccccc3c(=O)n2C(c2cccc(O)c2)N1Cc1ccccc1` (stereo not drawn) [Compound H12], for which the IC50 in assay [1] (setting [9]) is 25 µM; in assay [2], 19 µM; in assay [3] (setting [10]), > 250 µM and 25 µM; in assay [4], 30 µM.
On to `COc1cc2cc(-c3ccccc3)c(Cl)nc2cc1OC` [Compound G12], for which, in assay [1], the “PDGF-R phosphorylation” value was “inhibit PDGF-R phosphorylation”. Also, the IC50 in assay [1] (setting [9]) was 10 µM; in assay [7], > 50 µM; in assay [4], 10 µM. Besides, the “EGF receptor phosphorylation” value in assay [5] is reported as “do not effect EGF or HER2 phosphorylation”. Besides, the “HER2 phosphorylation” value in assay [6] is “do not effect EGF or HER2 phosphorylation”.
Consider `CCOc1ccccc1NC(=O)C(=O)NN=Cc1ccc(O)c(O)c1` [Compound E14], for which the IC50 was 10 µM in assay [1] (setting [9]), > 50 µM in assay [7] and 100 µM in assay [4].
For the molecule `COc1cc2ncnc(Nc3ccccc3)c2cc1OC` [Compound P14], the IC50 in assay [5] is > 50 µM; in assay [6] it was 10 µM; in assay [7], > 200 µM; in assay [8], 26 µM.
With `c1ccc(-c2cnc3ccccc3n2)cc1` [Compound G10], the IC50 was 10 µM in assay [1] (setting [9]), > 50 µM in assay [7] and 10 µM in assay [4].
For `O=[N+]([O-])c1ccc2ncc(-c3ccccc3)nc2c1` [Compound G23], the IC50 was 25 µM in assay [1] (read-out: PDGFR IC50 (W); W = done in Western assay), > 100 µM in assay [5], > 100 µM in assay [6] and 325 µM in assay [7].
For `N#CC(=Cc1cc(O)c(O)c(Br)c1)C(=O)NCCCNC(=O)C(C#N)=Cc1cc(O)c(O)c(Br)c1` [Compound P10], the IC50 in assay [1] (setting [9]) was 3 µM; in assay [5], 31 µM; in assay [6], > 100 µM; in assay [7], > 25 µM; in assay [2], 12 µM; in assay [3] (setting [10]), 3 µM.
On to `COc1cccc(NC(=S)C(C#N)C(=O)N2CCCC2)c1` (stereo not drawn) [Compound P21, N-3-methoxyphenyl (2-cyano-2-N-pyrrolidinycarbonyl) thioacetamide], for which the IC50 is > 25 µM in assay [2] and 93 µM in assay [3] (read-out: U1242 KINASE IC50).
As to `N#CC(=Cc1c[nH]c2ccccc12)C(N)=O` [Compound D13], the IC50 in assay [1] (setting [9]) is 30 µM; in assay [7], > 50 µM; in assay [4] it was 30 µM.
Consider `N#CC(=Cc1ccc(O)c(O)c1)c1c(C#N)c(N)nn1-c1ccccc1` [Compound C10], for which the “PDGF-R phosphorylation” value in assay [1] is “effects EGF-4, PDGF-R, and HER2 phosphorylation”. Besides, the IC50 in assay [1] (setting [9]) and in assay [4] was 25 µM each time. For the same molecule, in assay [5], the “EGF receptor phosphorylation” value is “effects EGF-4, PDGF-R, and HER2 phosphorylation”. Besides, the “HER2 phosphorylation” value in assay [6] was “effects EGF-4, PDGF-R, and HER2 phosphorylation”.
In the case of `Cc1cc2ncc(Nc3cccc(Br)c3)nc2cc1C` [Compound G28], the IC50 in assay [2] worked out at 4.5 µM; in assay [3] (scndry, read-out: U1242 KINASE IC50 (scndry)) it was 16.4 µM.
For `Cc1cc2ccccc2c[n+]1[O-]` [Compound P13], the IC50 in assay [2] is > 100 µM; in assay [3] (read-out: U1242 KINASE IC50), 1.2 µM.
`O=C(Nc1cc(C(F)(F)F)cc(C(F)(F)F)c1)c1cccs1` [Compound P12]: the IC50 in assay [1] (setting [9]) was 25 µM; in assay [6], > 50 µM; in assay [7], > 50 µM.
As to `N#CC(=Cc1ccc(O)c(O)c1)C(=O)NCc1ccc(F)cc1` [Compound P25], the IC50 in assay [1] (setting [9]) was 30 µM; in assay [5], > 100 µM; in assay [6], > 100 µM; in assay [7], > 500 µM.
